Test results published in ChEMBL document CHEMBL2331244, “Selective 3-phosphoinositide-dependent kinase 1 (PDK1) inhibitors: dissecting the function and pharmacology of PDK1” (J Med Chem, 2013).

Key:
[1] = biological target: T1, 3-phosphoinositide-dependent protein kinase 1 (Homo sapiens) (UniProt O15530); test: Agonist activity at human N-terminal His6-tagged PDK1 amino acid residues 51 to 359 expressed in insect sf21 cells using T308tide as substrate at 313 uM incubated for 60 mins prior to substrate addition measured after 60 mins by ATP depletion assay
T1 sequence (whole entry): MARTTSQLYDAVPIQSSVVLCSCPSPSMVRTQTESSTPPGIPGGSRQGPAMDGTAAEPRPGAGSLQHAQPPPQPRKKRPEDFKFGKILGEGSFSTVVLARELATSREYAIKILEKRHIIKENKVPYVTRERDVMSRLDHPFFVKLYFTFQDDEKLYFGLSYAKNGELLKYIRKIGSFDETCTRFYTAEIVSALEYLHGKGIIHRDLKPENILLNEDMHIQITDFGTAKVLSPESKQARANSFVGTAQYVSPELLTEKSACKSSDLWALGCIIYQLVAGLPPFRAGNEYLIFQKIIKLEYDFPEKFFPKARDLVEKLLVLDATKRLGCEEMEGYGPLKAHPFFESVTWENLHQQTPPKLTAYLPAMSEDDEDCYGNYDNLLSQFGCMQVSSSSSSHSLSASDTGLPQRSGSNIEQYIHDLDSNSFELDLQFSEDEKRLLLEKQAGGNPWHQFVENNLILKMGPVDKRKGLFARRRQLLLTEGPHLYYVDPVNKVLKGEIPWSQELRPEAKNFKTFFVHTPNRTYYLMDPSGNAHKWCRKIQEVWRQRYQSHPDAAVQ

[2] = biological target: T1, 3-phosphoinositide-dependent protein kinase 1 (Homo sapiens); test: Agonist activity at PDK1 (unknown origin) using T308tide as substrate assessed as concentration required to elicit 50% response in presence of [gamma-32P]ATP
NCI-H446 = test: Antiproliferative activity against PTEN-deficient human NCI-H446 cells after 72 hrs by ATP ViaLight assay; type: functional, cell-based; conditions: NCI-H446, 72 h
[3] = Antiproliferative activity against PTEN-deficient human U87 cells after 72 hrs by ATP ViaLight assay; type: functional, cell-based, U-87MG ATCC; conditions: U-87 MG
MDA-MB-231 = test: Antiproliferative activity against human MDA-MB-231 cells harboring KRAS mutant after 72 hrs by ATP ViaLight assay; type: functional, cell-based; conditions: MDA-MB-231, 72 h
[4] = Antiproliferative activity against human NCI-H1915 cells harboring KRAS mutant after 72 hrs by ATP ViaLight assay; type: functional, cell-based; conditions: NCI-H1915, 72 h
LNCaP = test: Antiproliferative activity against PTEN-deficient human LNCAP cells after 72 hrs by ATP ViaLight assay; type: functional, cell-based
MDA-MB-453 = test: Antiproliferative activity against human MDA-MB-453 cells harboring PI3KCA mutant after 72 hrs by ATP ViaLight assay; type: functional, cell-based; conditions: MDA-MB-453, 72 h
[5] = Antiproliferative activity against PTEN-deficient human […] cells after 72 hrs by ATP ViaLight assay; type: functional, cell-based
A-427 = test: Antiproliferative activity against human A427 cells harboring KRAS mutant after 72 hrs by ATP ViaLight assay; type: functional, cell-based; conditions: A-427, 72 h
BT-474 = test: Antiproliferative activity against human BT474 cells harboring PI3KCA mutant after 72 hrs by ATP ViaLight assay; type: functional, cell-based; conditions: BT-474, 72 h
A549 = test: Antiproliferative activity against human A549 cells harboring KRAS mutant after 72 hrs by ATP ViaLight assay; type: functional, cell-based; conditions: A549, 72 h
PC-3 = test: Antiproliferative activity against PTEN-deficient human PC3 cells after 72 hrs by ATP ViaLight assay; type: functional, cell-based; conditions: PC-3, 72 h
NCI-H1437 = test: Antiproliferative activity against human NCI-H1437 cells after 72 hrs by ATP ViaLight assay; type: functional, cell-based; conditions: NCI-H1437, 72 h
MCF7 = test: Antiproliferative activity against human MCF7 cells harboring PI3KCA mutant after 72 hrs by ATP ViaLight assay; type: functional, cell-based; conditions: MCF7, 72 h
UMC-11 = test: Antiproliferative activity against human UMC11 cells after 72 hrs by ATP ViaLight assay; type: functional, cell-based; conditions: UMC-11, 72 h
HCT-116 = test: Antiproliferative activity against human HCT116 cells harboring PI3KCA/KRAS double mutant after 72 hrs by ATP ViaLight assay; type: functional, cell-based; conditions: HCT-116, 72 h
T47D = test: Antiproliferative activity against human T47D cells harboring PI3KCA mutant after 72 hrs by ATP ViaLight assay; type: functional, cell-based
LS-513 = test: Antiproliferative activity against human LS513 cells harboring KRAS mutant after 72 hrs by ATP ViaLight assay; type: functional, cell-based; conditions: LS-513, 72 h
[6] = biological target: T2, 3-phosphoinositide-dependent protein kinase 1 (Homo sapiens, UniProt O15530); test: Inhibition of PDK1 (unknown origin)
T2 sequence (O15530 whole entry): T1 sequence (whole entry)

[7] = biological target: Serine/threonine-protein kinase mTOR (Homo sapiens, UniProt P42345); test: Inhibition of MTOR (unknown origin)
[8] = biological target: T2, 3-phosphoinositide-dependent protein kinase 1; test: Inhibition of recombinant PDK1 (unknown origin) using RPRAATF peptide as substrate assessed as substrate phosphorylation by scintillation counting analysis in presence of [gamma-32P]ATP

COc1ccc(CC(C(=O)O)c2ccccc2)cc1 (configuration not stated)
Activity [1]: 33%

O=C(O)CSC(CC(=O)c1ccc(Cl)cc1)c1ccccc1 (configuration not stated)
Activity [2]: 34 µM

O=C(N[C@@H](COc1ccc2[nH]c(=O)[nH]c2c1)c1ccccc1)c1cccn(Cc2ccc(F)c(F)c2)c1=O
EC50 (NCI-H446): > 9 µM | EC50 [3]: > 9 µM | EC50 (MDA-MB-231): > 9 µM | EC50 [4]: > 9 µM | EC50 (LNCaP): > 9 µM | EC50 (MDA-MB-453): > 9 µM | EC50 [5]: > 9 µM | EC50 (A-427): > 9 µM | EC50 (BT-474): > 9 µM | EC50 (A549): > 9 µM | EC50 (PC-3): > 9 µM | EC50 (NCI-H1437): > 9 µM | EC50 (MCF7): > 9 µM | EC50 (UMC-11): > 9 µM | EC50 (HCT-116): > 9 µM | EC50 (T47D): > 9 µM | EC50 (LS-513): > 9 µM

O=P(O)(O)O[C@@H]1[C@@H](OP(=O)(O)O)[C@@H](OP(=O)(O)O)[C@@H](OCc2ccccc2)[C@H](OP(=O)(O)O)[C@H]1OP(=O)(O)O
IC50 [6]: 26.5 nM | IC50 [7]: 1300 nM

NC(N)=Nc1ccc(-n2nc(C(F)(F)F)cc2-c2ccc3c(ccc4ccccc43)c2)cc1
IC50 [8]: 2000 nM
